The text below walks through data of article PMC12655446, “Colon-Specific Delivery of Probenecid Enhances Therapeutic Activity of the Uricosuric Agent Against Rat Colitis” (Pharmaceutics, 2025).

A word on the logD: it is the decadic logarithm of the distribution of all forms, ionised or not, between an organic phase and buffer at a given pH.

The test system of series [1] is dextran sulfate sodium-induced colitis. On the set-up: method as in PMID 40602551. The conditions noted are these: mice, oral 100 mg/kg; cited from earlier work.
Series [2] deals with Px-1. Also on record: method as in PMID 18596212. The conditions noted are these: cited from earlier work.
The nature of series [3]: Distribution coefficient (log D6.8), isotonic phosphate buffer (pH 6.8)/n-octanol. It counts as physicochemical. On the procedure:
Distribution coefficients (log D6.8) of PBN, PBN-GA, and PBN-AA were measured using an isotonic phosphate buffer (pH 6.8)/n-octanol system, as described previously.

Series [4] in a line: Chemical stability in HCl-NaCl buffer (pH 1.2) and isotonic phosphate buffer (pH 6.8). Format: physicochemical. The procedure: The chemical stabilities of PBN-GA and PBN-AA were tested in HCl-NaCl buffer (pH 1.2) and isotonic phosphate buffer (pH 6.8). Changes in the concentrations of PBN-GA and PBN-AA were monitored by HPLC.
Series [5] is described as follows: Incubation in small intestinal contents of rats. It counts as in vitro ADME, rat. The conditions noted are these: 10 h. The procedure: Male Sprague-Dawley rats (250–260 g) were euthanized with CO2 prior to making a midline abdominal incision. The small intestinal contents were collected and suspended in isotonic phosphate buffer (pH 6.8) to prepare a 20% (w/v) suspension. PBN-GA (2 mM) was dissolved in 3 mL of isotonic phosphate buffer (pH 6.8), were mixed with 3 mL of the small intestinal suspension and incubated at 37 °C. A solution of PBN-AA was created with the same method. At designated time points, 0.5 mL of the reaction mixture was collected and centrifuged at 10,000× g at 4 °C for 10 min, and 0.1 mL of the supernatant was mixed with 0.9 mL of methanol. After vortexing and centrifugation under the same conditions, the final supernatant was filtered through a 0.45 μm membrane, and 20 μL of the filtrate was analyzed for PBN concentration by HPLC.

Series [6] relates to Caco-2 cell monolayer. The series can be described thus: Cell permeability assay across Caco-2 cell monolayer. Format: in vitro ADME. The conditions noted are these: 500 μM apical, up to 24 h, apical to basolateral. On the procedure:
The cell permeabilities of PBN, PBN-GA, and PBN-AA were evaluated using a Caco-2 cell monolayer model. Caco-2 cells were seeded at a density of 4 × 10^5 cells per insert in Transwell 6-well plates with a pore size of 0.4 μm (SPL Life Sciences, Pocheon, Gyeonggi-do, Republic of Korea). The cells were cultured in Dulbecco’s modified eagle medium (DMEM) supplemented with 10% Fetal bovine serum (FBS) and 1% penicillin/streptomycin until the transepithelial electrical resistance (TEER) measured using an EMD Millipore system (Billerica, MA, USA) reached 2000 Ω·cm^2, indicating an intact monolayer.
For the transport study, the apical (donor) compartment was filled with 2 mL of DMEM without phenol red containing the test compounds (500 μM), and 3 mL of DMEM without phenol red was placed in the basolateral (acceptor) compartment. Samples were collected from the basolateral side at designated time intervals up to 24 h to determine the concentration of the permeated compounds using HPLC. Each experiment was performed in triplicate, and monolayer integrity was confirmed by maintaining TEER values above 2000 Ω·cm^2 before and after the assay.
Background: Caco-2 monolayers are a common model of the intestinal barrier.

Series [7] has as its system DNBS-induced rat colitis. Briefly: Anticolitis effects in DNBS-induced rat colitis. It counts as in vivo. On the procedure: Experimental colitis was induced in rats as previously described. Briefly, male Sprague–Dawley rats underwent to a 24 h fasting period with free access to water. Anesthesia was induced using 3% isoflurane and maintained at 2.5% in 1 L/min oxygen using a Small Animal O2 Single Flow Anesthesia System (LMS, Pyeongtaek, Republic of Korea). Once the animals no longer reacted to external tactile stimulation, a rubber cannula (2 mm outer diameter) was carefully inserted rectally, positioning the tip approximately 8 cm from the anus to target the splenic flexure. A solution of DNBS (48.0 mg) in 0.4 mL of 50% aqueous ethanol was then instilled into the colon via cannula to induce colitis.
Three days after the induction of colonic inflammation, the respective drugs were orally administered to the rats once daily for 6 consecutive days. The experimental scheme and treatment group assignments are shown in Supplementary Material S1. Colonic damage scores (CDS) were determined based on previously established scoring criteria. The scoring system is shown in Supplementary Material S2. Three independent observers blinded to the treatment groups conducted the CDS assessments. Myeloperoxidase (MPO) activity in the distal colon (4 cm) was determined as previously. One unit of MPO activity was defined as 1.0 μmol min^−1 of peroxide degradation at 25 °C.
Western blot analysis was performed on lysates derived from distal colon tissues following a previously established protocol. The detailed procedure is shown in Supplementary Material S3. Western blot images were quantified using Image Lab software (version 5.2 build 14; Bio-Rad, Hercules, CA, USA). Results are presented as the mean of the quantified values for each Western blot in the figures (n = 5).
The levels of inflammatory cytokine-induced neutrophil chemoattractant-3 (CINC-3) in the inflamed distal colon were determined using a CINC-3 enzyme-linked immunosorbent assay (ELISA) kit (R&D Systems, Minneapolis, MN, USA) as previously described.

Series [8] in a line: PBN concentration in the cecum after oral gavage. The conditions noted are these: rat. Format: in vivo. The procedure: For cecal distribution studies, rats were orally administered PBN (30.0 mg/kg) or PBN-GA (43.6 mg/kg, equivalent to 30.0 mg/kg of PBN) in 1.0 mL PBS. At 2, 4, and 8 h post-dosing, the cecal contents were harvested and suspended in isotonic phosphate buffer (pH 6.8) to prepare 10% (w/v) homogenates. Quantitative analysis of PBN in the cecal suspensions was performed using HPLC, following the procedure described in Section 2.7.

Setting [9] is: oral once daily for 6 days, PBN-GA 21.8 and 43.6 mg/kg.

Entries after “also recorded” stand apart in the source; their conditions may differ.

For the compound `N[C@@H](CCC(=O)O)C(=O)O` [GA, glutamic acid], the “effect on dextran sulfate sodium-induced colitis” value in series [1] was “attenuates”.

With `CCCN(CCC)S(=O)(=O)c1ccc(C(=O)O)cc1` [PBN, Probenecid], the “concentration required for significant inhibition of Px-1” value in series [2] is reported as 1 mM. For the same compound, in series [3], the logD was 0.3.

As for `CCCN(CCC)S(=O)(=O)c1ccc(C(=O)N[C@@H](CC(=O)O)C(=O)O)cc1` [PBN-AA, aspartic acid-conjugated PBN], the “change in concentration of the conjugate (stability)” value (from here on “change in concentration”) in series [4] (buffer pH 1.2, 10 h) is “no significant change”; in series [4] (buffer pH 6.8, 10 h), “no significant change”; in series [5], “no significant change”. Further, in series [6], the “transport via the Caco-2 cell monolayer compared with PBN” value is “lower transport”. In addition, the logD in series [3] is -1.04.

On to `CCCN(CCC)S(=O)(=O)c1ccc(C(=O)N[C@@H](CCC(=O)O)C(=O)O)cc1` [PBN-GA, glutamic acid-conjugated PBN], for which the “change in concentration” value in series [4] (buffer pH 1.2, 10 h) is recorded as “no significant change”. In series [4] (buffer pH 6.8, 10 h), the “change in concentration” value is “no significant change”. Besides, in series [7] (setting [9]), the “CINC-3 level in inflamed colon (ELISA)” value is “dose-dependently diminished”; the “COX-2 level in inflamed colon (Western blot)” value was “dose-dependently diminished”; the “iNOS level in inflamed colon (Western blot)” value was “dose-dependently diminished”; the “mucosal recovery (H&E staining of inflamed colon)” value is “more effective than PBN and SSZ”. In addition, the “myeloperoxidase (MPO) activity in inflamed distal colon” value in series [7] (setting [9]) was “dose-dependently diminished”. For the same compound, the “colonic tissue damage (colonic damage score, CDS)” value in series [7] (oral once daily for 6 days, PBN-GA 21.8 and 43.6 mg/kg, PBN 30.0 mg/kg, SSZ 50.0 mg/kg) is “greater with PBN-GA than with PBN; also recorded: more effective than SSZ”. Moreover, the “suppression of the inflammatory response compared with PBN and SSZ” value in series [7] (regardless of the dose of PBN-GA) is “more effective in suppressing the inflammatory response than PBN and SSZ”. Moreover, the “change in concentration” value in series [5] is reported as “no significant change”. For the same compound, the “amount of PBN detected in the cecum compared with oral PBN” value in series [8] (oral 43.6 mg/kg (equivalent to 30.0 mg/kg PBN), 2, 4 and 8 h) is “much greater amount of PBN”. For the same compound, in series [8] (oral, all time points), the “amount of PBN in the large intestine relative to oral PBN” value was “ten-fold”. The “transport via the Caco-2 cell monolayer compared with PBN” value in series [6] is listed as “lower transport”. Also, the logD in series [3] is -1.22.
